Data as given in article PMC11109252, “Synthetic aporphine alkaloids are potential therapeutics for Leigh syndrome” (Scientific Reports, 2024).
Entries after “also recorded” stand apart in the source; their conditions may differ.

Tests used:
[1] = system: LS patient-derived skin fibroblasts; test: Anti-BSO-induced cell death activity assay; settings: Homo sapiens, Skin fibroblast, 48 h, read-out: Anti-BSO-induced cell death effect EC50, co-added with BSO at a concentration giving 10%-20% cell viability; viable cells 48 h after addition
[2] = target: T1, dopamine D2 receptors (Homo sapiens, UniProt P14416); test: Dopamine D2 receptor agonist assay (GeneBLAzer D2-Gqo5-NFAT-bla CHO-K1 reporter); type: cell-based; settings: CHO cells stably expressing dopamine D2 receptors; NA: no activity; read-out: Dopamine D2 receptor agonist (DA) activity EC50
T1 construct: host or cells: CHO-K1 (GeneBLAzer D2-Gqo5-NFAT-bla)
Protocol: CHO-K1 cells were spread in 384-well plates at 10,000 cells/32 μL/well, taking care not to touch the bottom of the wells. Cell-free-wells were injected with the same volume (32 μL) of assay medium. The plates were then incubated in a CO2 incubator for 16–20 h. […] The diluted solution (8 μL/well) was added to 384-well plates seeded with CHO-K1 cells and incubated in a CO2 incubator for 5 h. […] The addition of the drug induces D2 receptor activation, which activates signaling pathways and transcription factors, resulting in the expression of a reporter gene (β-lactamase) and cleavage of the fluorescence resonance energy transfer (FRET) substrate, causing the fluorescence to change from green to blue.

[3] = system: LS patient-derived skin fibroblasts; test: Anti-RSL3-induced cell death activity assay; type: cell-based; settings: Homo sapiens, Skin fibroblast, read-out: Anti-RSL3-induced cell death effect EC50
Protocol: RSL3 is a glutathione peroxidase 4 (GPx4) inhibitor that specifically induces ferroptosis. Ferroptosis is an iron-dependent non-apoptotic type of cell death caused by lipid peroxidation.
After 24 h of incubation, the reagents were added to the RSL3 (−) derivative (−) and RSL3 ( +) derivative ( +) groups. […] The final concentration of RSL3 was 50–200 nM that would cause approximately 80–90% cell death after 24 h of incubation. The percentage of viable cells was measured 24 h after addition of each reagent.

[4] = system: LS patient-derived skin fibroblasts; test: Mitochondrial ATP production capacity (extracellular flux analyzer, OCR); type: cell-based, human; settings: 100 nM compound
Source text: The extracellular flux analyzer Seahorse XFe96 (Agilent Technologies, Santa Clara, CA, USA) was used to evaluate the mitochondrial function. The extracellular flux analyzer measures the oxygen consumption rate (OCR) in the mitochondria during ATP synthesis and can also evaluate the intracellular mitochondrial function. The endpoints were the basal OCR, ATP-linked OCR, maximal OCR, and spare capacity, which are key indicators of the mitochondrial function in assays using living cells. Each indicator was calculated by continuously adding ATP synthase inhibitors (oligomycin, rotenone and antimycin A) and deconjugating agents (carbonyl cyanide-p-trifluoromethoxyphenylhydrazone [FCCP]) during the measurement (Fig. 6). […] The OCR was measured over time by adding oligomycin (2 μM concentration) 20 min after drug addition, FCCP (2 μM concentration) 50 min later, and rotenone and antimycin A (0.5 μM concentration) 80 min later.

[5] = system: GDF-15; test: GDF-15 levels in the cell supernatant (ELISA); type: cell-based, human; settings: 24 h after co-administration with RSL3, compared to RSL3-only
Protocol: GDF-15 is a biomarker that is elevated in the blood of patients with mitochondrial diseases and is used for the diagnosis of mitochondrial diseases and determination of therapeutic efficacy[26],[36]. […] As previously reported, GDF-15 levels were measured by an enzyme-linked immuno sorbent assay (ELISA) using the Quantikin Human GDF-15 ELISA Kit (R&D Systems, Minneapolis, MN, USA). Samples were obtained from anti-RSL3-induced cell death assays with candidate compounds (D31, D55, and D40), and cell supernatants 24 h after reagent addition were used for the assay. Measured values were calculated with reference to internal standards and compared to GDF-15 values.

T1 sequence (P14416 whole entry): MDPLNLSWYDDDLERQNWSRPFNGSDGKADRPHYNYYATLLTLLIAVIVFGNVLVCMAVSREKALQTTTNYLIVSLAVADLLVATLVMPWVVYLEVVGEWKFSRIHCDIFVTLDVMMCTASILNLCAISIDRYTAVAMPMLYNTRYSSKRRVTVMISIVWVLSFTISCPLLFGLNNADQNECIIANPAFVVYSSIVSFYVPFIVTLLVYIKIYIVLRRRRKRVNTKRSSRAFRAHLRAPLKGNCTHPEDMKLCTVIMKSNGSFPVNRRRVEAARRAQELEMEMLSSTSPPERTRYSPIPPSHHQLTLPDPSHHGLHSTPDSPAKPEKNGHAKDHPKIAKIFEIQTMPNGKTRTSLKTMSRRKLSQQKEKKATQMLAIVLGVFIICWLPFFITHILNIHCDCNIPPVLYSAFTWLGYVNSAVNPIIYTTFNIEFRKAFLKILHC

Row | Compound | EC50 [1] [µM] | other results
1 | CCCN1CCc2cccc3c2[C@H]1Cc1ccc(O)c(O)c1-3 [D3, (9R)-10-propyl-10-azatetracyclo[7.7.1.0²,⁷.0¹³,¹⁷]heptadeca-1(17),2,4,6,13,15-hexaene-3,4-diol] | 0.186 | –
2 | Oc1ccc2c(c1O)-c1cccc3c1[C@@H](C2)NCC3 [D4, (9R)-10-azatetracyclo[7.7.1.0²,⁷.0¹³,¹⁷]heptadeca-1(17),2,4,6,13,15-hexaene-3,4-diol] | 1.99 | EC50 [2]: 0.582 µM
3 | CCCN1CCc2cccc3c2[C@H]1Cc1ccc2c(c1-3)OCO2 [D5, (12R)-13-propyl-4,6-dioxa-13-azapentacyclo[10.7.1.0²,¹⁰.0³,⁷.0¹⁶,²⁰]icosa-1(20),2,7,9,16,18-hexaene] | 2.11 | –
4 | COc1ccc2c(c1OC)C[C@@H]1c3c(cc4c(c3-2)OCO4)CCN1C [D8, (12R)-15,16-dimethoxy-11-methyl-3,5-dioxa-11-azapentacyclo[10.7.1.0²,⁶.0⁸,²⁰.0¹⁴,¹⁹]icosa-1(20),2(6),7,14,16,18-hexaene] | 0.18 | –
5 | COc1cccc2c1C[C@@H]1c3c(cc4c(c3-2)OCO4)CCN1C [D9, (12R)-15-methoxy-11-methyl-3,5-dioxa-11-azapentacyclo[10.7.1.0²,⁶.0⁸,²⁰.0¹⁴,¹⁹]icosa-1(20),2(6),7,14,16,18-hexaene] | 0.393 | –
6 | COc1cc(O)c2c(c1)C[C@@H]1c3c(cc4c(c3-2)OCO4)CCN1C [D10, (12R)-16-methoxy-11-methyl-3,5-dioxa-11-azapentacyclo[10.7.1.0²,⁶.0⁸,²⁰.0¹⁴,¹⁹]icosa-1(20),2(6),7,14,16,18-hexaen-18-ol] | 0.75 | –
7 | COc1cc2c(cc1OC)-c1c(OC)c(OC)cc3c1[C@@H](C2)N(C)CC3 [D11, (9R)-4,5,15,16-tetramethoxy-10-methyl-10-azatetracyclo[7.7.1.0²,⁷.0¹³,¹⁷]heptadeca-1(17),2,4,6,13,15-hexaene] | 6.92 | –
8 | CN1CCc2cccc3c2[C@H]1Cc1ccc(O)c(O)c1-3 [D15, (9R)-10-methyl-10-azatetracyclo[7.7.1.0²,⁷.0¹³,¹⁷]heptadeca-1(17),2,4,6,13,15-hexaene-3,4-diol, reference compound] | 0.613 | –
9 | CN1CCc2cc3c(c4c2[C@@H]1Cc1ccccc1-4)OCO3 [D18, (12S)-11-methyl-3,5-dioxa-11-azapentacyclo[10.7.1.0²,⁶.0⁸,²⁰.0¹⁴,¹⁹]icosa-1(20),2(6),7,14,16,18-hexaene] | 0.492 | –
10 | COc1cc2c(cc1O)C[C@@H]1c3c(cc(O)c(OC)c3-2)CCN1C [D19, (9R)-4,16-dimethoxy-10-methyl-10-azatetracyclo[7.7.1.0²,⁷.0¹³,¹⁷]heptadeca-1(17),2,4,6,13,15-hexaene-5,15-diol] | 5.18 | –
11 | COc1cc2c(cc1OC)-c1c3c(c(OC)c4c1C(C2)N(C)CC4)OCO3 (centres unmarked) [D20, 7,16,17-trimethoxy-11-methyl-3,5-dioxa-11-azapentacyclo[10.7.1.0²,⁶.0⁸,²⁰.0¹⁴,¹⁹]icosa-1(20),2(6),7,14,16,18-hexaene] | 0.798 | –
12 | CN1CCc2cccc3c2[C@@H]1Cc1ccc(O)c(O)c1-3 [D24, (9S)-10-methyl-10-azatetracyclo[7.7.1.0²,⁷.0¹³,¹⁷]heptadeca-1(17),2(7),3,5,13,15-hexaene-3,4-diol] | 1.03 | –
13 | COc1cc2c(cc1O)CC1NCCc3cc(OC)c(OC)c-2c31 (centres unmarked) [D25, 4,15,16-trimethoxy-10-azatetracyclo[7.7.1.0²,⁷.0¹³,¹⁷]heptadeca-1(17),2(7),3,5,13,15-hexaen-5-ol] | 2.05 | –
14 | COc1cc2c3c(c1O)-c1c(ccc(OC)c1OC)C[C@H]3N(C)CC2 [D26, (9R)-3,4,15-trimethoxy-10-methyl-10-azatetracyclo[7.7.1.0²,⁷.0¹³,¹⁷]heptadeca-1(17),2,4,6,13,15-hexaen-16-ol] | 0.289 | –
15 | CN1CCc2cccc3c2[C@H]1Cc1ccc(OCCCN)c(O)c1-3 [D27, (9R)-4-(3-aminopropoxy)-10-methyl-10-azatetracyclo[7.7.1.0²,⁷.0¹³,¹⁷]heptadeca-1(17),2,4,6,13,15-hexaen-3-ol] | 0.221 | EC50 [2]: 0.254 µM
16 | CCCCOc1ccc2c(c1O)-c1cccc3c1[C@@H](C2)N(C)CC3 [D36, (9R)-4-butoxy-10-methyl-10-azatetracyclo[7.7.1.0²,⁷.0¹³,¹⁷]heptadeca-1(17),2,4,6,13,15-hexaen-3-ol] | 0.123 | –
17 | CN1CCc2cccc3c2[C@H]1Cc1ccc(OCCCc2ccccc2)c(O)c1-3 [D37, (9R)-10-methyl-4-(3-phenylpropoxy)-10-azatetracyclo[7.7.1.0²,⁷.0¹³,¹⁷]heptadeca-1(17),2,4,6,13,15-hexaen-3-ol] | 0.186 | –
18 | CN1CCc2cccc3c2[C@H]1Cc1ccc(OCCCO)c(O)c1-3 [D38, (9R)-4-(3-hydroxypropoxy)-10-methyl-10-azatetracyclo[7.7.1.0²,⁷.0¹³,¹⁷]heptadeca-1(17),2,4,6,13,15-hexaen-3-ol] | 0.165 | EC50 [2]: 3.65 µM
19 | CN1CCc2cccc3c2[C@H]1Cc1ccc(OCCCCl)c(O)c1-3 [D39, (9R)-4-(3-chloropropoxy)-10-methyl-10-azatetracyclo[7.7.1.0²,⁷.0¹³,¹⁷]heptadeca-1(17),2,4,6,13,15-hexaen-3-ol] | 0.259 | –
20 | CCCCCCCCCOc1ccc2c(c1O)-c1cccc3c1[C@@H](C2)N(C)CC3 [D41, (9R)-10-methyl-4-(nonyloxy)-10-azatetracyclo[7.7.1.0²,⁷.0¹³,¹⁷]heptadeca-1(17),2,4,6,13,15-hexaen-3-ol] | 0.648 | –
21 | CN1CCc2cccc3c2[C@H]1Cc1ccc(OCCCC(F)(F)F)c(O)c1-3 [D42, (9R)-10-methyl-4-(4,4,4-trifluorobutoxy)-10-azatetracyclo[7.7.1.0²,⁷.0¹³,¹⁷]heptadeca-1(17),2,4,6,13,15-hexaen-3-ol] | 0.167 | –
22 | CN1CCc2cccc3c2[C@H]1Cc1ccc(-c2ccccc2)c(O)c1-3 [D45, (9R)-10-methyl-4-phenyl-10-azatetracyclo[7.7.1.0²,⁷.0¹³,¹⁷]heptadeca-1(17),2,4,6,13,15-hexaen-3-ol] | < 0.1 | EC50 [2]: 2.63 µM; EC50 ([3]; co-added with RSL3 at a concentration giving 10%-20% cell viability, viable cells 24 h after addition): 0.745 µM
23 | CN1CCc2cccc3c2[C@H]1Cc1ccc(OCc2ccccc2)c(O)c1-3 [D47, (9R)-4-(benzyloxy)-10-methyl-10-azatetracyclo[7.7.1.0²,⁷.0¹³,¹⁷]heptadeca-1(17),2,4,6,13,15-hexaen-3-ol] | 0.124 | –
24 | CN1CCc2cccc3c2[C@H]1Cc1ccc(OCCc2ccccc2)c(O)c1-3 [D48, (9R)-10-methyl-4-(2-phenylethoxy)-10-azatetracyclo[7.7.1.0²,⁷.0¹³,¹⁷]heptadeca-1(17),2,4,6,13,15-hexaen-3-ol] | 0.128 | –
25 | CN1CCc2cccc3c2[C@H]1Cc1ccc(OCCCCc2ccccc2)c(O)c1-3 [D50, (9R)-10-methyl-4-(4-phenylbutoxy)-10-azatetracyclo[7.7.1.0²,⁷.0¹³,¹⁷]heptadeca-1(17),2,4,6,13,15-hexaen-3-ol] | 0.207 | –
26 | CN1CCc2cccc3c2[C@H]1Cc1ccc(OCCC(c2ccccc2)c2ccccc2)c(O)c1-3 [D54, (9R)-4-(3,3-diphenylpropoxy)-10-methyl-10-azatetracyclo[7.7.1.0²,⁷.0¹³,¹⁷]heptadeca-1(17),2,4,6,13,15-hexaen-3-ol] | 0.497 | –
27 | CCOc1ccc2c(c1O)-c1cccc3c1[C@@H](C2)N(C)CC3 [D55, (9R)-4-ethoxy-10-methyl-10-azatetracyclo[7.7.1.0²,⁷.0¹³,¹⁷]heptadeca-1(17),2,4,6,13,15-hexaen-3-ol] | – | EC50 ([3]; 24 h): 0.021 µM; Enhancement of mitochondrial ATP production [4]: showed any ability to enhance mitochondrial ATP production; also recorded: No significant enhancement; GDF-15 elevation in cell supernatant [5]: suppressed GDF-15 elevation; also recorded: significant decrease
28 | CCOC(=O)c1ccc(NC2CCCCC2)c(N)c1 [ferrostatin-1, reference compound] | – | GDF-15 elevation in cell supernatant [5]: significant decrease
